Reference: BindingDB's records for doi:10.1021/cc9800374 (Smithkline Beecham Pharmaceuticals, 1999)

Assays:
Cathepsin L = Cathepsin L (Homo sapiens, UniProt Q6LAF7); assay: Inhibition Assay; settings: pH 5.5
Protocol: (§1) Inhibitors were assayed against human liver Cathepsin L and B. Inhibitors were also evaluated for inhibition against purified recombinant Cathepsin K.

Cathepsin K = biological target: T1, Cathepsin K (Homo sapiens, UniProt P43235); assay: Inhibition Assay; settings: pH 5.5
T1 sequence (P43235 whole entry): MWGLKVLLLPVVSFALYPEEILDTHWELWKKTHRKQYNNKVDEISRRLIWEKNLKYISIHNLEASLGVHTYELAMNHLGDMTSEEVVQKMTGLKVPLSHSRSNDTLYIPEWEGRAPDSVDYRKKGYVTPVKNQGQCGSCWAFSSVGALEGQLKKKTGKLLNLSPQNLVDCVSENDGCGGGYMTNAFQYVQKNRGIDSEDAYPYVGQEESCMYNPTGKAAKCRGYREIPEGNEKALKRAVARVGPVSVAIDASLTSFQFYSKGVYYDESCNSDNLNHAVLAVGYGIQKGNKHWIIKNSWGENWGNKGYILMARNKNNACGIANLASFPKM
Protocol: as §1

Cathepsin L, sequence (Q6LAF7 whole entry): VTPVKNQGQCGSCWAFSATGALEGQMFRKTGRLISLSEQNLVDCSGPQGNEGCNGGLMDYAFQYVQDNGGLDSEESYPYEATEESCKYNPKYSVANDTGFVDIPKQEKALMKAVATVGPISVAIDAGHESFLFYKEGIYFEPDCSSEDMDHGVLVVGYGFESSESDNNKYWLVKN

Row | Structure (SMILES) | Ki (Cathepsin L) [nM] | Ki (Cathepsin K) [nM]
1 | CC(C)C[C@H](NC(=O)c1ccc2ccccc2n1)C(=O)NC(C)C(=O)CNC(=O)Cc1cccc(-c2ccccn2)c1 (stereo partly specified) [Cathepsin Inhibitor, Column 5 Row 1] | 130 | 1.7
2 | CC(NC(=O)[C@H](Cc1ccccc1)NC(=O)c1ccc(C(F)(F)F)cc1)C(=O)CNC(=O)Cc1cccc(-c2ccccn2)c1 (stereo partly specified) [Cathepsin Inhibitor, Column 2 Row 2] | 120 | 90
3 | CC(NC(=O)[C@H](Cc1ccccc1)NC(=O)c1ccc2ncccc2c1)C(=O)CNC(=O)Cc1cccc(-c2ccccn2)c1 (stereo partly specified) [Cathepsin Inhibitor, Column 4 Row 2] | 36 | 170
4 | CC(C)C[C@H](NC(=O)c1ccc(C(F)(F)F)cc1)C(=O)NC(C)C(=O)CNC(=O)Cc1cccc(-c2ccccn2)c1 (stereo partly specified) [Cathepsin Inhibitor, Column 2 Row 1] | 230 | 8.4
5 | CC(NC(=O)[C@@H](NC(=O)c1cc2ccccc2s1)C(C)C)C(=O)CNC(=O)Cc1cccc(-c2ccccn2)c1 (stereo partly specified) [Cathepsin Inhibitor, Column 6 Row 3] | > 1000 | 300
6 | COc1ccc(C(=O)N[C@H](C(=O)NC(C)C(=O)CNC(=O)Cc2cccc(-c3ccccn3)c2)C(C)C)cc1OC (stereo partly specified) [Cathepsin Inhibitor, Column 3 Row 3] | > 1000 | > 1000
7 | COc1ccc(C(=O)N[C@@H](Cc2ccccc2)C(=O)NC(C)C(=O)CNC(=O)Cc2cccc(-c3ccccn3)c2)cc1OC (stereo partly specified) [Cathepsin Inhibitor, Column 3 Row 2] | 53 | 25

Further lines, results first:

Row | Ki (Cathepsin L) [nM] | Ki (Cathepsin K) [nM] | Structure (SMILES)
8 | 110 | 170 | CC(NC(=O)[C@H](Cc1ccccc1)NC(=O)c1ccc2ccccc2n1)C(=O)CNC(=O)Cc1cccc(-c2ccccn2)c1 (stereo partly specified) [Cathepsin Inhibitor, Column 5 Row 2]
9 | 18 | 16 | CC(NC(=O)[C@H](Cc1ccccc1)NC(=O)c1cc2ccccc2s1)C(=O)CNC(=O)Cc1cccc(-c2ccccn2)c1 (stereo partly specified) [Cathepsin Inhibitor, Column 6 Row 2]
10 | > 1000 | > 1000 | CC(NC(=O)[C@@H](NC(=O)c1ccc2ncccc2c1)C(C)C)C(=O)CNC(=O)Cc1cccc(-c2ccccn2)c1 (stereo partly specified) [Cathepsin Inhibitor, Column 4 Row 3]
11 | 150 | 7.4 | COc1ccc(C(=O)N[C@@H](CC(C)C)C(=O)NC(C)C(=O)CNC(=O)Cc2cccc(-c3ccccn3)c2)cc1OC (stereo partly specified) [Cathepsin Inhibitor, Column 3 Row 1]
12 | > 1000 | 830 | CC(NC(=O)[C@@H](NC(=O)c1ccc2ccccc2n1)C(C)C)C(=O)CNC(=O)Cc1cccc(-c2ccccn2)c1 (stereo partly specified) [Cathepsin Inhibitor, Column 5 Row 3]
13 | > 1000 | > 1000 | CC(=O)N[C@@H](Cc1ccccc1)C(=O)NC(C)C(=O)CNC(=O)Cc1cccc(-c2ccccn2)c1 (stereo partly specified) [Cathepsin Inhibitor, Column 1 Row 2]
14 | > 1000 | 200 | CC(=O)N[C@@H](CC(C)C)C(=O)NC(C)C(=O)CNC(=O)Cc1cccc(-c2ccccn2)c1 (stereo partly specified) [Cathepsin Inhibitor, Column 1 Row 1]
15 | 90 | 1.3 | CC(C)C[C@H](NC(=O)c1cc2ccccc2s1)C(=O)NC(C)C(=O)CNC(=O)Cc1cccc(-c2ccccn2)c1 (stereo partly specified) [Cathepsin Inhibitor, Column 6 Row 1]
16 | 130 | 18 | CC(C)C[C@H](NC(=O)c1ccc2ncccc2c1)C(=O)NC(C)C(=O)CNC(=O)Cc1cccc(-c2ccccn2)c1 (stereo partly specified) [Cathepsin Inhibitor, Column 4 Row 1]
17 | > 1000 | > 1000 | CC(=O)N[C@H](C(=O)NC(C)C(=O)CNC(=O)Cc1cccc(-c2ccccn2)c1)C(C)C (stereo partly specified) [Cathepsin Inhibitor, Column 1 Row 3]
18 | > 1000 | 430 | CC(NC(=O)[C@@H](NC(=O)c1ccc(C(F)(F)F)cc1)C(C)C)C(=O)CNC(=O)Cc1cccc(-c2ccccn2)c1 (stereo partly specified) [Cathepsin Inhibitor, Column 2 Row 3]
